From patent publication US8889671B2, “Compounds and methods for treating bacterial infections” (AstraZeneca AB, priority 2013, dated 2014)
≈ marks a conversion by molar mass, not a printed value. Like-named read-outs stand apart in the source and are kept apart here.

How the values were obtained:
[1] = tested on: Streptococcus pyogenes ATCC12384; assay: Modal MIC against S. pyogenes ATCC12384; type: cell-based
Protocol: The MIC against S. pyogenes ATCC12384 was determined using the broth microdilution method following CLSI guidelines. Three individual determinations were performed for each strain and the Modal MIC was used for all PK/PD calculations. All animal experiments were performed under UK Home Office Licensure with local ethical committee clearance. All experiments were performed by technicians who have completed parts 1, 2 and 3 of the Home Office Personal License course and hold current personal licenses.

[2] = tested on: Stenotrophomonas maltophilia; assay: In vitro antibacterial activity of Example 5 (MIC); type: cell-based
Acinetobacter baumannii = assay: In vitro antibacterial activity of Example 5 (MIC); type: cell-based
Streptococcus pyogenes = assay: In vitro antibacterial activity of Example 5 (MIC); type: cell-based; settings: for MIC: Streptococcus pyogenes (isolates not further specified)
[3] = tested on: Prevotella melaninogenica; assay: In vitro antibacterial activity of Example 5 against anaerobes (MIC, agar dilution); type: cell-based
Enterobacter aerogenes = assay: In vitro antibacterial activity of Example 5 (MIC); type: cell-based; settings: Klebsiella aerogenes
Klebsiella pneumoniae = assay: In vitro antibacterial activity of Example 5 (MIC); type: cell-based
Streptococcus pneumoniae = assay: In vitro antibacterial activity of Example 5 (MIC); type: cell-based
[4] = target: Escherichia coli DNA gyrase A/B tetramer (Escherichia coli (strain K12), UniProt P0AES4+P0AES6); assay: DNA gyrase supercoiling activity fluorescence polarisation assay; type: biochemical; settings: Eco Gyr FP Mean IC50, E. coli DNA gyrase supercoiling, 0.3 mM ATP
Summary of the method: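 IC50 derived by nonlinear regression from BODIPY-FL fluorescence anisotropy, read 60 min after quenching with labelled triplex-forming probe (pH 3.5). Reaction: 5 nM gyrase tetramer, 130 micrograms/mL relaxed plasmid, 0.3 mM ATP, 4 mM MgCl2, pH 7.5, typically 30 min at ambient temperature, 5-10 compound concentrations.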

Proteus mirabilis = assay: In vitro antibacterial activity of Example 5 (MIC); type: cell-based
Burkholderia cepacia = assay: In vitro antibacterial activity of Example 5 (MIC); type: cell-based
[5] = Plasma pharmacokinetics in S. aureus infected mice; type: in vivo, mouse; settings: intraperitoneal, mice with ABT
Protocol: Groups of satellite mice infected with S. aureus were used for determining plasma concentrations. Dosing started 2 hours after infection and whole blood samples were taken at time points 0.5, 1, 2, 4, 6, 8, 12 and 24 h by submandibular bleed or by cardiac puncture following carbon dioxide asphyxiation and cervical dislocation. Whole blood was sampled into microcontainer tubes containing ethylenediamine tetraacetic acid (EDTA) (Beckton Dickenson). Three mice per time point were used. Plasma was separated by centrifugation for five minutes at 13200 rpm and stored at −20° C. until bioanalysis.
Biological samples containing Example 5 were extracted using protein precipitation. To one volume of sample, 5 volumes of acetonitrile containing the internal standard (Glyburide) were added. […] A Sciex API 4000, controlled by Analyst v1.4.2, was used for the acquisition of the data and the quantification of Example 5.
The plasma profile for each dose group was obtained by calculating the average plasma concentration of compound in each of the three animals per time point. The area under the plasma concentration time curve from zero to infinity (AUC); maximum plasma drug concentration (Cmax); time to reach maximum concentration (tmax); and plasma half-life (t1/2) for each dose group was determined by non-compartmental analysis (WinNonLin 5.2, Pharsight). […]

[6] = tested on: Staphylococcus saprophyticus; assay: In vitro antibacterial activity of Example 5 (MIC); type: cell-based
Candida albicans = assay: In vitro antibacterial activity of Example 5 (MIC); type: cell-based; settings: ATCC90028; Candida albicans (ATCC 90028 CLSI QC Strain)
Clostridium perfringens = assay: microbe, parasite or virus in culture; type: cell-based
Staphylococcus aureus = assay: S. aureus neutropenic mouse thigh infection model, PK/PD; settings: for AUC value for 1-log reduction / AUC value for stasis: ip, with ABT
[7] = S. aureus MRSA neutropenic dose response
[8] = S. aureus MRSA, neutropenic mouse thigh
[9] = S. aureus MSSA neutropenic dose response
[10] = S. aureus MSSA, neutropenic mouse thigh
[11] = S. aureus USA100, neutropenic mouse thigh
[12] = S. aureus USA100 neutropenic dose response
[13] = S. aureus USA300, neutropenic mouse thigh
[14] = S. aureus USA300 neutropenic dose response

## C[C@@H]1CN2c3c(cc4c(N5C(=O)OC[C@@H]5C)noc4c3F)CC3(C(=O)NC(=O)NC3=O)[C@H]2[C@H](C)O1 [Example 5, (2R,4S,4aS)-11-Fluoro-2,4-dimethyl-8-[(4S)-4-methyl-2-oxo-1,3-oxazolidin-3-yl]-1,2,4,4a-tetrahydro-2′H,6H-spiro[1,4-oxazino[4,3-a][1,2]oxazolo[4,5-g]quinoline-5,5′-pyrimidine]-2′,4′,6′(1′H,3′H)-trione]
[1]
  MIC: 0.125 µg/mL (≈ 0.256 µM)
[2]
  MIC: > 64 µg/mL
Acinetobacter baumannii
  MIC: 4 µg/mL (≈ 8.21 µM)
Acinetobacter baumannii; Acinetobacter baumannii (in vivo strain)
  MIC: 4 µg/mL (≈ 8.21 µM)
Acinetobacter baumannii; Acinetobacter baumannii (multi-drug resistant)
  MIC: 16 µg/mL (≈ 32.8 µM)
Streptococcus pyogenes
  MIC: 0.25 µg/mL (≈ 0.513 µM)
Streptococcus pyogenes; Streptococcus pyogenes, read-out: MIC
  MIC: 0.125 µg/mL (≈ 0.256 µM)
Streptococcus pyogenes; Streptococcus pyogenes, 100 strains of S. pyogenes
  MIC90: 0.25 µg/mL (≈ 0.513 µM)
Streptococcus pyogenes; Streptococcus pyogenes, 100 strains of S. pyogenes, read-out: MIC50 (MICH [sic])
  MIC50: 0.125 µg/mL (≈ 0.256 µM)
[3]
  MIC: 0.25 µg/mL (≈ 0.513 µM)
Enterobacter aerogenes
  MIC: 64 µg/mL (≈ 131 µM)
Klebsiella pneumoniae; ATCC700603, Klebsiella pneumoniae (ATCC 700603 CLSI QC Strain)
  MIC: > 64 µg/mL
Klebsiella pneumoniae; Klebsiella pneumoniae (In vivo strain)
  MIC: 16 µg/mL (≈ 32.8 µM)
Klebsiella pneumoniae; Klebsiella pneumoniae (isolates not further specified)
  MIC: 64 µg/mL (≈ 131 µM)
Streptococcus pneumoniae; Streptococcus pneumonia (Penicillin, -erythromycin- and fluoroquinolone-resistant)
  MIC: 0.25 µg/mL (≈ 0.513 µM)
Streptococcus pneumoniae; Streptococcus pneumoniae, ATCC49619, Streptococcus pneumonia (ATCC 49619, CLSI QC Strain), read-out: MIC
  MIC: 0.25 µg/mL (≈ 0.513 µM)
Streptococcus pneumoniae; Streptococcus pneumoniae, 100 strains of S. pneumoniae
  MIC90: 0.25 µg/mL (≈ 0.513 µM)
Streptococcus pneumoniae; Streptococcus pneumoniae, 100 strains of S. pneumoniae, read-out: MIC50 (MICH [sic])
  MIC50: 0.125 µg/mL (≈ 0.256 µM)
Streptococcus pneumoniae; Streptococcus pneumoniae, Streptococcus pneumonia (In vivo Strain), read-out: MIC
  MIC: 0.25 µg/mL (≈ 0.513 µM)
[4]
  IC50: 169 nM
Proteus mirabilis
  MIC: 8 µg/mL (≈ 16.4 µM)
Burkholderia cepacia
  MIC: 64 µg/mL (≈ 131 µM)
[5]
  pharmacokinetics over the dosing range: nonlinear pharmacokinetics
  time of maximum concentration post-administration: 0.5 h
[6]
  MIC: 0.5 µg/mL (≈ 1.03 µM)
[6]; S. saprophyticus, n=16
  MIC90: 0.5 µg/mL (≈ 1.03 µM)
Candida albicans
  MIC: > 64 µg/mL
Clostridium perfringens
  MIC: 0.5 µg/mL (≈ 1.03 µM)
Staphylococcus aureus; [7]
  AUC/MIC (free), 1-log reduction ± SEM: 96 ± 35
  AUC/MIC (free), EC50 ± SEM: 53 ± 25
  AUC/MIC (free), Stasis ± SEM: 43 ± 5
Staphylococcus aureus; [8]
  AUC value for 1-log reduction: 55 μg·h/mL
  AUC value for stasis: 24 µg·h/mL
Staphylococcus aureus; [9]
  AUC/MIC (free), 1-log reduction ± SEM: 245 ± 81
  AUC/MIC (free), EC50 ± SEM: 71 ± 28
  AUC/MIC (free), Stasis ± SEM: 98 ± 17
Staphylococcus aureus; [10]
  AUC value for 1-log reduction: 69 μg·h/mL
  AUC value for stasis: 28 µg·h/mL
Staphylococcus aureus; [11]
  AUC value for 1-log reduction: 47 μg·h/mL
  AUC value for stasis: 25 µg·h/mL
Staphylococcus aureus; [12]
  AUC/MIC (free), 1-log reduction ± SEM: 83 ± 23
  AUC/MIC (free), EC50 ± SEM: 34 ± 14
  AUC/MIC (free), Stasis ± SEM: 43 ± 5
Staphylococcus aureus; [13]
  AUC value for 1-log reduction: 150 μg·h/mL
  AUC value for stasis: 91 µg·h/mL
Staphylococcus aureus; [14]
  AUC/MIC (free), 1-log reduction ± SEM: 132 ± 16
  AUC/MIC (free), EC50 ± SEM: 73 ± 38
  AUC/MIC (free), Stasis ± SEM: 80 ± 5
